From ChEMBL document CHEMBL5214960 (J Med Chem, 2022)
Changes are numbered by the printed parent chain. ≈ marks a conversion by molar mass, not a printed value.

Experiments:
[1] = target: T1, Low molecular weight phosphotyrosine protein phosphatase (Homo sapiens, UniProt P24666); experiment: Inhibition of His-tagged human LMW-PTP expressed in Escherichia coli BL21 using pNPP as substrate incubated for 10 mins by microplate reader based spectrophotometric analysis
T1 sequence (P24666 whole entry): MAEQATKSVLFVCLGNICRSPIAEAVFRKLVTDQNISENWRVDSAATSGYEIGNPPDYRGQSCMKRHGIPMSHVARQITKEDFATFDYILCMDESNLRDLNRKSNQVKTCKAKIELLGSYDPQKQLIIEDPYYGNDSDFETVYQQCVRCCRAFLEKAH

CYP2D6 = CYP2D6 (Homo sapiens, UniProt P10635); experiment: Inhibition of human hepatic CYP2D6 using bufuralol HCL as substrate measured after 3 mins by LC-MS analysis relative to control; type: ADME, tissue-based; parameters: concentration or dose not given beside the values; settings: human hepatic CYP2D6 (liver), probe bufuralol HCl
Chain of CYP2D6 (P10635 whole entry): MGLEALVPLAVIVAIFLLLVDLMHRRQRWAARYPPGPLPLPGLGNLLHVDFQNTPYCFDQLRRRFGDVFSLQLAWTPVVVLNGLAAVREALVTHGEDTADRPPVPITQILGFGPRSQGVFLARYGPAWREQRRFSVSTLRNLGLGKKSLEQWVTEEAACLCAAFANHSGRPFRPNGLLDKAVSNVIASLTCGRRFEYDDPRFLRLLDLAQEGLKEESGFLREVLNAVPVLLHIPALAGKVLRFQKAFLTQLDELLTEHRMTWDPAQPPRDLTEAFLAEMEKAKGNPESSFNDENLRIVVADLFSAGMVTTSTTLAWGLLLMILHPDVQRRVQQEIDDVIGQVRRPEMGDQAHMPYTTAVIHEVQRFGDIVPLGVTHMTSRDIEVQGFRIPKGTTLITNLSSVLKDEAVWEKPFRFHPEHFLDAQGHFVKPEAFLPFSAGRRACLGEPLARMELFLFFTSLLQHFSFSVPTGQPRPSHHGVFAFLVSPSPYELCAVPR

[2] = AUC(0 to 12 hrs) in Sprague-Dawley rat plasma at 30 mg/kg, po measured after 24 hrs by LC-MS/MS analysis; type: ADME, organism-based; parameters: time 24 hrs, dose 30 mg/kg, route po; settings: in vivo
[3] = Cmax in Sprague-Dawley rat plasma at 30 mg/kg, po measured after 24 hrs by LC-MS/MS analysis; type: ADME, organism-based; parameters: time 24 hrs, dose 30 mg/kg, route po; settings: in vivo
[4] = Plasma protein binding in mouse assessed as unbound fraction measured after 4.5 hrs by LC-MS/MS analysis; type: ADME, cell-free
[5] = Half life in Sprague-Dawley rat plasma at 30 mg/kg, po measured after 24 hrs by LC-MS/MS analysis; type: ADME, organism-based; settings: in vivo
[6] = Unbound Cmax in plasma of Sprague-Dawley rat at 30 mg/kg, po measured after 24 hrs by LC-MS/MS analysis; type: ADME, organism-based; settings: in vivo
CYP3A4 = CYP3A4 (Homo sapiens, UniProt P08684); experiment: Inhibition of human hepatic CYP3A4 using midazolam as substrate measured after 3 mins by LC-MS analysis relative to control; type: ADME, tissue-based; parameters: concentration or dose not given beside the values; settings: human hepatic CYP3A4 (liver), probe midazolam
Chain of CYP3A4 (P08684 whole entry): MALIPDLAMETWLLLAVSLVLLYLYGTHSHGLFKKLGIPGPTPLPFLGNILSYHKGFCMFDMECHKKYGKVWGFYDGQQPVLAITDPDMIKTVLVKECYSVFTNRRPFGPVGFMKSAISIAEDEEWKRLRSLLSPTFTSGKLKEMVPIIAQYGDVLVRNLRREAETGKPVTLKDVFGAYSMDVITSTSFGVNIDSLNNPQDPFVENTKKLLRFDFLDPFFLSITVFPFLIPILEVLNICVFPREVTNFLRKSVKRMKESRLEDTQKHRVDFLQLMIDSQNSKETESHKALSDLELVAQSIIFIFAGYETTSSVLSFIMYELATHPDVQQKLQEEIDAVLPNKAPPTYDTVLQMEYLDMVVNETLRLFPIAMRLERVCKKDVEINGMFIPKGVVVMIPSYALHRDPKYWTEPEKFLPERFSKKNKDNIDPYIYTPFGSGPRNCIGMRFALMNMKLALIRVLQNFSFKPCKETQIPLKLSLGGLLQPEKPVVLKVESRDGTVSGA

[7] = Cmax in CD-1 mouse plasma at 10 mg/kg, po measured after 8 hrs by LC-MS/MS analysis; type: ADME, organism-based; parameters: dose 10 mg/kg, time 8 hrs, route po
[8] = Inhibition of PTP-Meg2 (unknown origin); parameters: species or system Homo sapiens
CYP2C9 = CYP2C9 (Homo sapiens, UniProt P11712); experiment: Inhibition of human hepatic CYP2C9 using diclofenac as substrate measured after 10 mins by LC-MS analysis relative to control; type: ADME, tissue-based; parameters: concentration or dose not given beside the values; settings: human hepatic CYP2C9 (liver), probe diclofenac
Chain of CYP2C9 (P11712 whole entry): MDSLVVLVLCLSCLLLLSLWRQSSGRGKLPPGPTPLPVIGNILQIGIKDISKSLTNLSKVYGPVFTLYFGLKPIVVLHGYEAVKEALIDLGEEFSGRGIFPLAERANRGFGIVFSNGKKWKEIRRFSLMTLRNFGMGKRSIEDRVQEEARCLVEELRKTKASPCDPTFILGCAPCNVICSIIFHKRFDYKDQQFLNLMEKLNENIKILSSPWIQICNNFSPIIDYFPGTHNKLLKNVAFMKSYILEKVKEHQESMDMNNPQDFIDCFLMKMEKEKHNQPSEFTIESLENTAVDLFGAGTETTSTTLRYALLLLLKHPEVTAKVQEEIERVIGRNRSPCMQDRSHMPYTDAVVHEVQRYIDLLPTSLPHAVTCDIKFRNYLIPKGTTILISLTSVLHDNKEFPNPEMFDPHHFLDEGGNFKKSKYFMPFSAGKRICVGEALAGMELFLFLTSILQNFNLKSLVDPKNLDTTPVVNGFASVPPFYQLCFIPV

[9] = target: T2, Low molecular weight phosphotyrosine protein phosphatase (Mus musculus, UniProt Q9D358); experiment: Inhibition of N-terminal His-tagged full length mouse LMW-PTP expressed in Escherichia coli BL21(DE3) by […] analysis
T2 sequence (Q9D358 whole entry): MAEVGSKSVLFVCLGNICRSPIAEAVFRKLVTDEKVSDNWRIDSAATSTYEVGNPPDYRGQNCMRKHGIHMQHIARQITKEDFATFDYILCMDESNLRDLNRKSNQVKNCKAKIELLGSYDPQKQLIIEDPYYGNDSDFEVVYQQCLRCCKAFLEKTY

[10] = Unbound Cmax in plasma of CD-1 mouse at 10 mg/kg, po measured after 8 hrs by LC-MS/MS analysis; type: ADME, organism-based; settings: in vivo
[11] = Volume of distribution at steady state in CD-1 mouse plasma at 2 mg/kg, iv measured after 8 hrs by LC-MS/MS analysis; type: ADME, organism-based; settings: in vivo
[12] = Aqueous solubility of compound at pH 6 by HPLC analysis; type: physicochemical; settings: buffer
[13] = Metabolic stability in human hepatic microsome at 4 uM measured after 30 mins by LC-MS analysis; type: ADME; settings: liver microsomes, read-out: Stability
[14] = Metabolic stability in mouse hepatic microsome at 4 uM measured after 30 mins by LC-MS analysis; type: ADME; settings: liver microsomes, read-out: Stability
[15] = target: T3, Low molecular weight phosphotyrosine protein phosphatase (Rattus norvegicus, UniProt P41498); experiment: Inhibition of N-terminal His-tagged full length rat LMW-PTP expressed in Escherichia coli BL21(DE3)
T3 sequence (P41498 whole entry): T2 sequence (Q9D358 whole entry) with K35N, R65K, K80R, Y158H

[16] = Metabolic stability in dog hepatic microsome at 4 uM measured after 30 mins by LC-MS analysis; type: ADME, Canis lupus familiaris; settings: liver microsomes, read-out: Stability
[17] = AUC(0 to 8 hrs) in CD-1 mouse plasma at 2 mg/kg, iv measured after 8 hrs by LC-MS/MS analysis; type: ADME, organism-based; parameters: dose 2 mg/kg, time 8 hrs, route iv; settings: in vivo
[18] = AUC(0 to 8 hrs) in CD-1 mouse plasma at 10 mg/kg, po measured after 8 hrs by LC-MS/MS analysis; type: ADME, organism-based; parameters: dose 10 mg/kg, time 8 hrs, route po; settings: in vivo
[19] = Tmax in Sprague-Dawley rat plasma at 30 mg/kg, po measured after 24 hrs by LC-MS/MS analysis; type: ADME, organism-based; settings: in vivo
[20] = Cmax in CD-1 mouse plasma at 2 mg/kg, iv measured after 8 hrs by LC-MS/MS analysis; type: ADME, organism-based; parameters: time 8 hrs, dose 2 mg/kg, route iv
[21] = target: Dual specificity protein phosphatase 23 (Homo sapiens, UniProt Q9BVJ7); experiment: Inhibition of VHZ (unknown origin)
Chain of Dual specificity protein phosphatase 23 (Q9BVJ7 whole entry): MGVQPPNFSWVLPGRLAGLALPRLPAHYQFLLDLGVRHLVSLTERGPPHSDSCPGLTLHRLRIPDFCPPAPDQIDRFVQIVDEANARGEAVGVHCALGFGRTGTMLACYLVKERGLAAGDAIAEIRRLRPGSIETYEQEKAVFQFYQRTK

[22] = Half life in CD-1 mouse plasma at 2 mg/kg, iv measured after 8 hrs by LC-MS/MS analysis; type: ADME, organism-based
[23] = Oral bioavailability in CD-1 mouse plasma at 10 mg/kg measured after 8 hrs by LC-MS/MS analysis; type: ADME, organism-based; settings: mouse, in vivo, po, 10 mg/kg, 8 h
[24] = Unbound Cmax in plasma of CD-1 mouse at 2 mg/kg, iv measured after 8 hrs by LC-MS/MS analysis; type: ADME, organism-based; settings: in vivo
[25] = Half life in CD-1 mouse plasma at 10 mg/kg, po measured after 8 hrs by LC-MS/MS analysis; type: ADME, organism-based; settings: in vivo

| SMILES | IC50 [1] | inhibition at 0.05 h (CYP2D6) | Fu [4] | inhibition at 0.05 h (CYP3A4) | inhibition at 10 min (CYP2C9) | remaining at 0.5 h, 4 µM [13] | remaining at 0.5 h, 4 µM [14] | remaining at 0.5 h, 4 µM [16] | other results |
| --- | --- | --- | --- | --- | --- | --- | --- | --- | --- |
| O=C(CS(=O)(=O)O)Nc1nc2cccc([N+](=O)[O-])c2s1 | 1500 nM | – | – | – | – | – | – | – | – |
| Cc1c(Br)cc(NC(=O)CS(=O)(=O)O)cc1Br | 2200 nM | 1% | < 0.008 | 15% | 18% | 7% | 0% | 23% | AUC [2]: 21.1 µM·h; Cmax [3]: 3030 nM; t1/2 [5]: 3.6 h; fCmax [6]: < 85 nM; Cmax ([7]; CD-1, mouse, plasma): 2000 nM; IC50 [8]: > 100000 nM; IC50 [9]: 62 nM; fCmax [10]: < 16 nM; Vdss [11]: 0.58 L/kg; solubility [12]: 740 µg/mL (≈ 1910 µM); IC50 [15]: 62 nM; AUC [17]: 4.1 µM·h; AUC [18]: 8.8 µM·h; Tmax [19]: 1.7 h; Cmax [20]: 2000 nM; IC50 [21]: > 100000 nM; half-life ([22]; CD-1, mouse, plasma): 1.5 h; F [23]: 43%; fCmax [24]: < 16 nM; t1/2 [25]: 4.2 h |
| O=C(CS(=O)(=O)O)Nc1cc(Br)cc2ccccc12 | 6000 nM | – | – | – | – | – | – | – | – |
| O=C(CS(=O)(=O)O)Nc1cc(Br)cc([N+](=O)[O-])c1 | 3400 nM | – | – | – | – | – | – | – | – |
| O=C(CS(=O)(=O)O)Nc1nc2ccccc2s1 | – | 0% | 0.209 | 6% | 1% | 18% | 3% | 11% | solubility [12]: 530 µg/mL (≈ 1950 µM) |
| O=C(Nc1ccc(N2CCOCC2)c(Br)c1)NS(=O)(=O)O | 8 nM | – | – | – | – | – | – | – | – |
| O=C(CS(=O)(=O)O)Nc1cc(C(F)(F)F)cc(C(F)(F)F)c1 | 5400 nM | – | – | – | – | – | – | – | – |
| O=C(CS(=O)(=O)O)Nc1nc2ccc([N+](=O)[O-])cc2s1 | 200 nM | 1% | 0.057 | 0% | 0% | 53% | 4% | 7% | solubility [12]: 590 µg/mL (≈ 1860 µM) |
| O=C(CS(=O)(=O)O)Nc1ccc(N2CCOCC2)c(Br)c1 | 1500 nM | 20% | 0.243 | 36% | 64% | 3% | 3% | 11% | AUC [2]: 1.23 µM·h; Cmax [3]: 258 nM; t1/2 [5]: 6.8 h; fCmax [6]: 43 nM; Cmax ([7]; mouse, in vivo, 8 h): 483 nM; IC50 [9]: 36 nM; fCmax [10]: 117 nM; Vdss [11]: 0.73 L/kg; solubility [12]: 760 µg/mL (≈ 2000 µM); IC50 [15]: 36 nM; AUC [17]: 1.72 µM·h; AUC [18]: 1.94 µM·h; Tmax [19]: 1 h; Cmax [20]: 8090 nM; t1/2 ([22]; mouse, in vivo, iv, 2 mg/kg, 8 h): 0.2 h; F [23]: 23%; fCmax [24]: 1966 nM; t1/2 [25]: 4.2 h |
| Cc1c(Br)cc(NC(=O)[C@@H](C#N)S(=O)(=O)O)cc1Br | 4400 nM | – | – | – | – | – | – | – | – |
| O=C(CS(=O)(=O)O)Nc1cc(Br)cc(Br)c1 | 6000 nM | – | – | – | – | – | – | – | – |
| O=C(CS(=O)(=O)O)Nc1cc(I)cc(I)c1 | 3400 nM | – | – | – | – | – | – | – | – |
| O=C(Nc1ccccc1)NS(=O)(=O)O | 121 nM | – | – | – | – | – | – | – | – |
| N.O=C(Nc1nc2ccccc2s1)NS(=O)(=O)O | 56 nM | 0% | 0.07 | 4% | 0% | 7% | 0% | 0% | – |
| O=C(CS(=O)(=O)O)Nc1cc(Cl)cc(Cl)c1 | 8600 nM | – | – | – | – | – | – | – | – |
| O=C(CS(=O)(=O)O)Nc1cnc2ncccc2c1 | 1500 nM | – | – | – | – | – | – | – | – |
